Laboratory results: PubChem BioAssay AID330 (DTP/NCI, 2004)
Values joined by “and” are separate entries in the source; they are usually repeats but may differ in a detail not shown here. Identical values can stand only once. Toxic doses and inconclusive results are not listed. Rule for the calls: active = survival T/C of 150% or more; inactive = T/C below 125% in these data.

System: P388 leukemia ip, CD2F1 mice, survival T/C
Experiment: NCI In Vivo Anticancer Drug Screen. Data for tumor model P388 Leukemia (intraperitoneal) in CD2F1 (CDF1) mice
Conditions: endpoint: median survival time, higher = longer survival
In short: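 Mice carrying the transplanted tumor received test compound or vehicle. Survival was recorded in each group, and the value is the treated-group measurement divided by that of the vehicle-treated control group.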

[1] = dose: 50.0 mg/kg/injection, schedule: Q01DX009 (ip), vehicle: saline with Tween-80
[2] = dose: 100.0 mg/kg/injection, schedule: Q01DX009 (ip), vehicle: saline with Tween-80
[3] = dose: 200.0 mg/kg/injection, schedule: Q01DX009 (ip), vehicle: saline with Tween-80
[4] = dose: 50.0 mg/kg/injection, schedule: Q01DX009 (ip), vehicle: saline
[5] = dose: 50.0 mg/kg/injection, schedule: Q01DX005 (ip), vehicle: Klucel (hydroxypropylcellulose) (HPC)
[6] = dose: 100.0 mg/kg/injection, schedule: Q01DX005 (ip), vehicle: Klucel (hydroxypropylcellulose) (HPC)
[7] = dose: 200.0 mg/kg/injection, schedule: Q01DX005 (ip), vehicle: Klucel (hydroxypropylcellulose) (HPC)
[8] = dose: 60.0 mg/kg/injection, schedule: Q01DX005 (ip), vehicle: saline with Tween-80
[9] = dose: 120.0 mg/kg/injection, schedule: Q01DX005 (ip), vehicle: saline with Tween-80
[10] = dose: 240.0 mg/kg/injection, schedule: Q01DX005 (ip), vehicle: saline with Tween-80
[11] = dose: 50.0 mg/kg/injection, schedule: Q01DX009 (ip), vehicle: Klucel (hydroxypropylcellulose) (HPC)
[12] = dose: 100.0 mg/kg/injection, schedule: Q01DX009 (ip), vehicle: Klucel (hydroxypropylcellulose) (HPC)
[13] = dose: 100.0 mg/kg/injection, schedule: Q01DX009 (ip), vehicle: saline
[14] = dose: 200.0 mg/kg/injection, schedule: Q01DX009 (ip), vehicle: saline
[15] = dose: 25.0 mg/kg/injection, schedule: Q01DX009 (ip), vehicle: saline with Tween-80

Measured: T/C

CCCCCC(=O)NCC(=O)NC1C(C)OC(Nc2ncnc3nc[nH]c23)C(O)C1O (stereo not given)
inactive: dose: 0.5 mg/kg/injection, schedule: Q01DX009 (ip), vehicle: other 99 % of control | dose: 1.0 mg/kg/injection, schedule: Q01DX009 (ip), vehicle: other 102 % of control | dose: 2.0 mg/kg/injection, schedule: Q01DX009 (ip), vehicle: other 106 % of control | dose: 4.0 mg/kg/injection, schedule: Q01DX009 (ip), vehicle: other 106 % of control | dose: 8.0 mg/kg/injection, schedule: Q01DX009 (ip), vehicle: other 99 % of control

CC(C)=CCC(/C=N/N=C(N)N)C(C)C (stereo not given)
inactive: dose: 6.25 mg/kg/injection, schedule: Q01DX005 (ip), vehicle: suspension in saline 96 % of control | dose: 12.5 mg/kg/injection, schedule: Q01DX005 (ip), vehicle: suspension in saline 97 % of control | dose: 25.0 mg/kg/injection, schedule: Q01DX005 (ip), vehicle: suspension in saline 96 % of control

CCCc1c(C(=O)OCC)c(-c2ccccc2)c(CCC)c2c1-c1cccc3cccc-2c13
inactive: [1] 99 % of control | [2] 95 % of control | [3] 92 % of control

CCCCCCCCCCCCCC[N+]1([O-])CCCC1
inactive: [4] 94 % of control

COc1cccc(C2Nc3ccccc3C(=O)N2N2CCOCC2)c1 (stereo not given)
inactive: [5] 100 % of control | [6] 94 % of control | [7] 96 % of control

C/C=C(/C)c1cccc(OCc2ccccc2)c1OCc1ccccc1
inactive: [1] 95 % of control | [2] 90 % of control | [3] 106 % of control

CCCCCCCCCCCCCCCCSC1=CC(=O)C(Cl)=C(Cl)C1=O
inactive: dose: 10.0 mg/kg/injection, schedule: Q01DX009 (ip), vehicle: Klucel (hydroxypropylcellulose) (HPC) 96 % of control | dose: 20.0 mg/kg/injection, schedule: Q01DX009 (ip), vehicle: Klucel (hydroxypropylcellulose) (HPC) 96 % of control | dose: 40.0 mg/kg/injection, schedule: Q01DX009 (ip), vehicle: Klucel (hydroxypropylcellulose) (HPC) 95 % of control

CSC(=S)N1CCN(C(=S)SC)C1=O
inactive: [5] 108 % of control | [6] 96 % of control | [7] 91 % of control

COC12C=CC(CC1)C1C(=O)C=CC(=O)C12 (stereo not given)
inactive: [8] 105 % of control | [9] 105 % of control | [10] 112 % of control

OCCN=Cc1ccccc1
inactive: dose: 25.0 mg/kg/injection, schedule: Q01DX009 (ip), vehicle: saline sonified 90 % of control | dose: 50.0 mg/kg/injection, schedule: Q01DX009 (ip), vehicle: saline sonified 104 % of control | dose: 100.0 mg/kg/injection, schedule: Q01DX009 (ip), vehicle: saline sonified 104 % of control

O=C(Nc1ccccc1-c1ccccc1)C(Cl)Cl
inactive: [11] 101 % of control | [12] 104 % of control | dose: 200.0 mg/kg/injection, schedule: Q01DX009 (ip), vehicle: Klucel (hydroxypropylcellulose) (HPC) 87 % of control | dose: 400.0 mg/kg/injection, schedule: Q01DX009 (ip), vehicle: Klucel (hydroxypropylcellulose) (HPC) 100 % of control

COc1ccc(C(=O)/C=C/c2ccc3c(c2)OCO3)c(OCc2ccccc2)c1
inactive: dose: 3.75 mg/kg/injection, schedule: Q01DX009 (ip), vehicle: Klucel (hydroxypropylcellulose) (HPC) 98 % of control | dose: 7.5 mg/kg/injection, schedule: Q01DX009 (ip), vehicle: Klucel (hydroxypropylcellulose) (HPC) 99 % of control | dose: 15.0 mg/kg/injection, schedule: Q01DX009 (ip), vehicle: Klucel (hydroxypropylcellulose) (HPC) 98 % of control | dose: 30.0 mg/kg/injection, schedule: Q01DX009 (ip), vehicle: Klucel (hydroxypropylcellulose) (HPC) 94 % of control

O=NC=C1N(O)C=CN1O
inactive: dose: 25.0 mg/kg/injection, schedule: Q01DX009 (ip), vehicle: other 102 % of control | dose: 50.0 mg/kg/injection, schedule: Q01DX009 (ip), vehicle: other 101 % of control | dose: 100.0 mg/kg/injection, schedule: Q01DX009 (ip), vehicle: other 97 % of control | dose: 200.0 mg/kg/injection, schedule: Q01DX009 (ip), vehicle: other 102 % of control | dose: 400.0 mg/kg/injection, schedule: Q01DX009 (ip), vehicle: other 99 % of control

CCCCC(C)(CCN)CCCC
inactive: dose: 25.0 mg/kg/injection, schedule: Q01DX009 (ip), vehicle: suspension in saline 103 % of control | dose: 50.0 mg/kg/injection, schedule: Q01DX009 (ip), vehicle: suspension in saline 105 % of control | dose: 100.0 mg/kg/injection, schedule: Q01DX009 (ip), vehicle: suspension in saline 106 % of control

C/C(COc1ccc([N+](=O)[O-])cc1)=N/NS(=O)(=O)c1cc(Cl)c(Cl)cc1Cl
inactive: dose: 12.5 mg/kg/injection, schedule: Q01DX009 (ip), vehicle: saline 101 % of control | dose: 25.0 mg/kg/injection, schedule: Q01DX009 (ip), vehicle: saline 102 % of control | [4] 99 % of control and 87 % of control

COC(=O)C(=O)c1c(C(=O)OC)nc2nnc(N)n2c1-c1ccc(Cl)c(Cl)c1
inactive: [8] 96 % of control | [9] 101 % of control | [10] 104 % of control

O=C1CC(=O)OCCOCCOCCO1
inactive: [4] 98 % of control | [13] 117 % of control | [14] 101 % of control

O=C1CN(/N=C\c2ccc([N+](=O)[O-])o2)C(=O)N1
inactive: [15] 100 % of control | dose: 25.0 mg/kg/injection, schedule: Q04DX003 (ip), vehicle: saline with Tween-80 110 % of control | [1] 100 % of control | dose: 50.0 mg/kg/injection, schedule: Q04DX003 (ip), vehicle: saline with Tween-80 110 % of control | [2] 109 % of control | dose: 100.0 mg/kg/injection, schedule: Q04DX003 (ip), vehicle: saline with Tween-80 105 % of control

O=C1CSC(c2cccc(Cl)c2)N1c1nncs1 (stereo not given)
inactive: [8] 109 % of control | [9] 97 % of control | [10] 98 % of control

C/C(C/C(C)=N/O)=N/O
inactive: [4] 99 % of control | [13] 97 % of control | [14] 91 % of control

Clc1cccn2cnnc12
inactive: [1] 98 % of control | [2] 103 % of control | [3] 100 % of control

CCn1cc(C(=O)O)c(=O)c2ccc(-c3cn[nH]c3C)nc21
inactive: dose: 50.0 mg/kg/injection, schedule: Q04DX003 (ip), vehicle: suspension in saline 106 % of control | dose: 100.0 mg/kg/injection, schedule: Q04DX003 (ip), vehicle: suspension in saline 107 % of control | dose: 200.0 mg/kg/injection, schedule: Q04DX003 (ip), vehicle: suspension in saline 106 % of control

CC(=O)C1(C(C)=O)OC2c3ccccc3C=CN2C=C1C=O (stereo not given)
inactive: [8] 110 % of control | [9] 106 % of control | [10] 106 % of control

Nc1ccc(O)c2c1C(=O)c1ccccc1C2=O
inactive: dose: 50.0 mg/kg/injection, schedule: Q01DX005 (ip), vehicle: saline with Tween-80 93 % of control | dose: 100.0 mg/kg/injection, schedule: Q01DX005 (ip), vehicle: saline with Tween-80 111 % of control | dose: 200.0 mg/kg/injection, schedule: Q01DX005 (ip), vehicle: saline with Tween-80 101 % of control

Cc1nnc(-n2cccc2)s1
inactive: dose: 12.5 mg/kg/injection, schedule: Q01DX009 (ip), vehicle: Klucel (hydroxypropylcellulose) (HPC) 105 % of control | dose: 25.0 mg/kg/injection, schedule: Q01DX009 (ip), vehicle: Klucel (hydroxypropylcellulose) (HPC) 104 % of control and 95 % of control | [11] 100 % of control and 106 % of control | [12] 100 % of control and 111 % of control

Cc1ccc(O)c(C(c2cc(C)ccc2O)c2cc(C)ccc2O)c1
inactive: [15] 107 % of control | [1] 105 % of control and 113 % of control | [2] 101 % of control

C#CC1(NC(=O)c2ccccc2C(=O)Nc2cccc(C(F)(F)F)c2)CCCCC1
inactive: [1] 97 % of control | [2] 89 % of control | [3] 89 % of control

CC(C)(C)N1CCC1
inactive: [5] 100 % of control | [6] 99 % of control

CCCCN(CCCC)CC(O)c1c2cccc(Cl)c2cc2c(Cl)cccc12 (stereo not given)
inactive: [1] 98 % of control and 99 % of control | [2] 99 % of control and 92 % of control | [3] 90 % of control | dose: 400.0 mg/kg/injection, schedule: Q01DX009 (ip), vehicle: saline with Tween-80 90 % of control

CCOc1ccc(C(C)c2cc3c(cc2OCCO)OCO3)cc1 (stereo not given)
inactive: dose: 12.5 mg/kg/injection, schedule: Q01DX005 (ip), vehicle: Klucel (hydroxypropylcellulose) (HPC) 109 % of control | dose: 25.0 mg/kg/injection, schedule: Q01DX005 (ip), vehicle: Klucel (hydroxypropylcellulose) (HPC) 97 % of control | [5] 104 % of control | [6] 103 % of control | [7] 102 % of control
